Assay results as given in ChEMBL document CHEMBL5390293, “Additional Sarasinosides from the Marine Sponge Melophlus sarasinorum Collected from the Bismarck Sea” (J Nat Prod, 2023).
pIC50: −log10 of the molar value. Active and inactive are the calls of the source. No cut-off for these calls is given here.

Legend:
N2a = test: Cytotoxicity against mouse Neuro2a cells incubated for 24 hrs by absorbance based assay; type: functional, cell-based
HepG2 [1] = test: Cytotoxicity against human HepG2 cells incubated for 48 hrs by absorbance based assay; type: functional, cell-based; settings: HepG2, 48 h
Nakaseomyces glabratus = test: Antimicrobial activity against Candida glabrata assessed as fungal growth inhibition; type: functional, organism-based
A2058 = test: Cytotoxicity against human A2058 cells assessed as cell viability at 20 ug/ml by MTT assay; type: functional, cell-based; settings: dose 20.0 µg/ml
Aspergillus fumigatus = test: Antimicrobial activity against Aspergillus fumigatus assessed as fungal growth inhibition; type: functional, organism-based
HepG2 [2] = test: Cytotoxicity against human HepG2 cells assessed as cell viability at 20 ug/ml by MTT assay; type: functional, cell-based; settings: dose 20.0 µg/ml
MIA PaCa-2 = test: Cytotoxicity against human MIA PaCa-2 cells assessed as cell viability at 20 ug/ml by MTT assay; type: functional, cell-based; settings: dose 20.0 µg/ml
MCF7 = test: Cytotoxicity against human MCF7 cells assessed as cell viability at 20 ug/ml by MTT assay; type: functional, cell-based; settings: dose 20.0 µg/ml
A549 = test: Cytotoxicity against human A549 cells assessed as cell viability at 20 ug/ml by MTT assay; type: functional, cell-based; settings: dose 20.0 µg/ml
Acinetobacter baumannii = test: Antimicrobial activity against Acinetobacter baumannii assessed as bacterial growth inhibition; type: functional, organism-based
Candida parapsilosis = test: Antimicrobial activity against Candida parapsilosis assessed as fungal growth inhibition; type: functional, organism-based
Pichia kudriavzevii = test: Antimicrobial activity against Pichia kudriavzevii assessed as fungal growth inhibition; type: functional, organism-based
Staphylococcus aureus = test: Antimicrobial activity against methicillin sensitive Staphylococcus aureus assessed as bacterial growth inhibition; type: functional, organism-based
Escherichia coli = test: Antimicrobial activity against Escherichia coli assessed as bacterial growth inhibition; type: functional, organism-based
Candida tropicalis = test: Antimicrobial activity against Candida tropicalis assessed as fungal growth inhibition; type: functional, organism-based
Candida albicans = test: Antimicrobial activity against Candida albicans assessed as fungal growth inhibition; type: functional, organism-based

| SMILES | pIC50 (N2a) | pIC50 (HepG2 [1]) | inhibition (Nakaseomyces glabratus) | Activity (A2058) | inhibition (Aspergillus fumigatus) | Activity (HepG2 [2]) | inhibition (MIA PaCa-2) | Activity (MCF7) | Activity (A549) | inhibition (Acinetobacter baumannii) | inhibition (Candida parapsilosis) | inhibition (Pichia kudriavzevii) | inhibition (Staphylococcus aureus) | inhibition (Escherichia coli) | inhibition (Candida tropicalis) | inhibition (Candida albicans) |
| --- | --- | --- | --- | --- | --- | --- | --- | --- | --- | --- | --- | --- | --- | --- | --- | --- |
| CC(=O)N[C@H]1[C@H](O[C@@H]2CO[C@@H](O[C@H]3CC[C@]4(C)C5=C(CC[C@H]4C3(C)C)C3CC[C@H]([C@H](C)CC(=O)C=C(C)C)[C@@]3(C)CC5)[C@H](O[C@@H]3O[C@H](CO[C@@H]4OC[C@@H](O)[C@H](O)[C@H]4O[C@@H]4O[C@H](CO)[C@H](O)[C@@H](O)[C@H]4O)[C@@H](O)[C@H](O)[C@H]3NC(C)=O)[C@H]2O)O[C@H](CO)[C@H](O)[C@@H]1O (some centres undefined) | 5.24 | – | – | – | – | – | – | – | – | – | – | – | – | – | – | – |
| CC(=O)N[C@H]1[C@H](O[C@@H]2CO[C@@H](O[C@H]3CC[C@]4(C)C5=CC[C@@]6(C)C(=C(CC[C@H]4C3(C)C)O5)CC[C@@H]6[C@H](C)CC(=O)C=C(C)C)[C@H](O[C@@H]3O[C@H](CO[C@@H]4OC[C@@H](O)[C@H](O)[C@H]4O[C@@H]4O[C@H](CO)[C@@H](O)[C@H](O)[C@H]4O)[C@@H](O)[C@H](O)[C@H]3NC(C)=O)[C@H]2O)O[C@H](CO)[C@H](O)[C@@H]1O | – | 5.23 | – | – | – | – | – | – | – | – | – | – | – | – | – | – |
| CC(=O)N[C@H]1[C@H](O[C@@H]2CO[C@@H](O[C@H]3CC[C@]4(C)C5=C(CC[C@H]4C3(C)C)[C@@H]3CC[C@H]([C@H](C)CC(=O)C=C(C)C)[C@@]3(C)CC5)[C@H](O[C@@H]3O[C@H](CO[C@@H]4OC[C@@H](O)[C@H](O)[C@H]4O)[C@@H](O)[C@H](O)[C@H]3NC(C)=O)[C@H]2O)O[C@H](CO)[C@H](O)[C@@H]1O | – | – | inactive | inactive | inactive | inactive | inactive | inactive | inactive | inactive | inactive | inactive | inactive | inactive | inactive | inactive |
| CO[C@H]1C[C@H]([C@H](C)CC(=O)C=C(C)C)[C@@]2(C)CC[C@@]3(O)C(=C12)CC[C@H]1C(C)(C)[C@@H](O[C@@H]2OC[C@@H](O[C@@H]4O[C@H](CO)[C@H](O)[C@H](O)[C@H]4NC(C)=O)[C@H](O)[C@H]2O[C@@H]2O[C@H](CO[C@@H]4OC[C@@H](O)[C@H](O)[C@H]4O)[C@@H](O)[C@H](O)[C@H]2NC(C)=O)CC[C@@]13C | – | – | inactive | inactive | inactive | inactive | inactive | inactive | inactive | inactive | inactive | inactive | inactive | inactive | inactive | inactive |
| CO[C@@H]1C[C@H]([C@H](C)CC(=O)C=C(C)C)[C@@]2(C)CC[C@@]3(O)C(=C12)CC[C@H]1C(C)(C)[C@@H](O[C@@H]2OC[C@@H](O[C@@H]4O[C@H](CO)[C@H](O)[C@H](O)[C@H]4NC(C)=O)[C@H](O)[C@H]2O[C@@H]2O[C@H](CO[C@@H]4OC[C@@H](O)[C@H](O)[C@H]4O)[C@@H](O)[C@H](O)[C@H]2NC(C)=O)CC[C@@]13C | – | – | inactive | inactive | inactive | inactive | inactive | inactive | inactive | inactive | inactive | inactive | inactive | inactive | inactive | inactive |
